Reference: PMC6521623, “DIRAS3-Derived Peptide Inhibits Autophagy in Ovarian Cancer Cells by Binding to Beclin1” (Cancers, 2019)
Ends that are not written are not given here.

B1: DIRAS3 switch II region peptide on the DIRAS3 peptide array (residues 93-107) (peptide, UniProt O95661 93-107, looked up)
peptide: KSGDGNRALQRHVIA
notes: source: synthetic peptide, SPOT synthesis on membrane (MultiPep RS robot)
B2: DIRAS3 N-terminus peptides on the DIRAS3 peptide array (residues 15-33) (peptide, UniProt O95661 15-33, looked up)
peptide: KRLRLLPALLILRAFKPHR
notes: DIRAS3, residues 15-33 (N-terminus), a stretch covered by overlapping 15mer peptides of an array covering residues 1-229; The stretch is longer than one 15mer, so several overlapping array spots are meant; also called N-terminus of DIRAS3 (residues 15-33); source: synthetic peptide, SPOT synthesis on membrane (MultiPep RS robot)

Key:
full-length Beclin1 = target: T1, full-length Beclin1 (Homo sapiens, UniProt Q14457); assay: SPR affinity of biotinylated D3S2 peptide for Beclin1; format: binding; details: SPR Biacore 3000, 25 °C, c-terminal biotinylated D3S2 on SA chip, Beclin1 10 to 270 nM, Langmuir 1:1 fit, unit inferred
T1 construct: His tag (pQTEV vector, TEV site) (cleaved yes); made in house; host or cells: Escherichia coli BL21 (DE3), by analogy with the DIRAS2/3 chimera
T1 sequence (Q14457 whole entry): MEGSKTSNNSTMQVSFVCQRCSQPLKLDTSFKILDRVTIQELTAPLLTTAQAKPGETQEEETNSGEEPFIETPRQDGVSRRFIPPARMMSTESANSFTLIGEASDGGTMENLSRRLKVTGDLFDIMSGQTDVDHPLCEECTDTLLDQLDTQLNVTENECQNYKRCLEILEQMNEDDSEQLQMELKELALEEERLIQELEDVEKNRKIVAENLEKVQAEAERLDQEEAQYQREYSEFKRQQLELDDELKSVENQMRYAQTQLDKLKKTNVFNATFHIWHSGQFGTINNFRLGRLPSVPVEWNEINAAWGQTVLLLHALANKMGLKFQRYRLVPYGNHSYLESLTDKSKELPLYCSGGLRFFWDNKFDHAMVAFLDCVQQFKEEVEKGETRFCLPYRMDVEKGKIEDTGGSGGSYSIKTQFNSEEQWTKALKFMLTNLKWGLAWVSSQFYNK
Description: A DIRAS2/3 chimera construct was generated by replacing the amino acid residues 92–108 of DIRAS3 with 62–78 amino acid residues of DIRAS2. The DIRAS2/3 chimera construct was cloned into pQTEV vector using ligation-independent cloning and transformed into BL21 (DE3) Escherichia coli cells. Cells carrying the DIRAS2/3 chimera constructs were grown at 37 °C until the OD at 600 nm (OD600) reached to 0.6 and protein expression was induced with 0.5 mM isopropyl β-D-1-thiogalactopyranoside. Cultures were grown for an additional 12 h at 18 °C and harvested by centrifugation. Cells were resuspended in lysis buffer containing 50 mM Tris (pH 7.5), 150 mM sodium chloride, 10 mM magnesium chloride, 10 mM Imidazole, 5% glycerol and 1 mM β-mercaptoethanol and lysed using a cell disrupter (Constant Systems, Northamptonshire, UK). The lysate was cleared by centrifugation at 35,000 × g for 2 h at 4 °C. Cleared lysate was passed through a 0.22-μm filter. […]
SPR experiments were performed using a Biacore 3000 optical biosensor (GE Healthcare/Biacore AB) at 25 °C. […] Reference and buffer corrected SPR response was collected and the data was analyzed using Biacore evaluation software. The kinetic parameters and KD value were determined by fitting the sensorgram to a Langmuir 1:1 binding model (BIAevaluation version 4.1.1, GE Healthcare/Biacore AB, Marlborough, MA, USA).

[1] = target: T2, Beclin1 recombinant protein (UniProt Q14457 1-450); assay: peptide or protein array; 15mer peptide array of DIRAS3 residues 1-229 on membrane, overlaid with recombinant Beclin1 at 1 µg/mL in 1% BSA/PBS, 2 h at room temperature; detected with primary and secondary antibody, HRP; details: both partners purified
T2 construct: Beclin1 (BECN1); called full-length Beclin1 in the SPR experiment; The construct is not described beyond 'produced in a similar fashion'; For the chimera the His tag was cleaved with TEV protease; whether this also holds for Beclin1 is surmised; also called BECN1; full-length Beclin1; source: recombinant
T2 sequence (Q14457 whole entry, the tested form may be a part): as the sequence (Q14457 whole entry) above

| Molecule | kon (full-length Beclin1; read-out: association rate constant (ka)) | koff (full-length Beclin1; read-out: dissociation rate constant (kd)) | binding result [1] |
| --- | --- | --- | --- |
| SKSGDGNRALQRHVIAR [D3S2] | 62200 M⁻¹ s⁻¹ | 0.000125 s⁻¹ |  |
| B1 |  |  | binds |
| B2 |  |  | binds |
